Results from the NIST ThermoML archive (doi:10.1016/j.tca.2007.10.001).

Assays:
[1] = Molar enthalpy of transition or fusion; settings: Crystal
[2] = molar heat capacity at constant pressure; settings: 101.33 kPa, Crystal
[3] = Crystal; DTA

c1cnc2c(c1)ccc1cccnc12 [1,10-phenanthroline]
Settings	Molar enthalpy of transition or fusion [kcal/mol]	Triple point temperature [K]
[1]	2.82	–
[3]	–	391.1

[2]
Settings	molar heat capacity at constant pressure [J/K/mol]
298.2 K	115
300.2 K	116
302.2 K	117
304.2 K	125
306.2 K	127
308.2 K	133
310.2 K	140
312.2 K	150
314.2 K	156
316.2 K	165
318.2 K	175
320.2 K	184
322.2 K	192
324.2 K	199
326.2 K	206
328.2 K	213
330.2 K	221
332.2 K	226
334.2 K	235
336.2 K	237
338.2 K	245
340.2 K	247
342.2 K	253
344.2 K	253
346.2 K	256
348.2 K	260
350.2 K	263
352.2 K	265
354.2 K	270
356.2 K	271
358.2 K	276
360.2 K	279

Cc1ccc2ccc3ccc(C)nc3c2n1 [2,9-dimethyl-1,10-phenanthroline]
Settings	Molar enthalpy of transition or fusion [kcal/mol]	Triple point temperature [K]
[1]	4.21	–
[3]	–	435.9

[2]
Settings	molar heat capacity at constant pressure [J/K/mol]
298.2 K	253
303.2 K	274
308.2 K	292
313.2 K	306
318.2 K	321
323.2 K	331
328.2 K	345
333.2 K	354
338.2 K	361
343.2 K	370
348.2 K	373
353.2 K	374
358.2 K	383
363.2 K	383
368.2 K	387
373.2 K	384
378.2 K	386
383.2 K	390
388.2 K	386
393.2 K	383
